Measurements as given in patent US7038049B2, “Haloanilino quinazolines and therapeutic use thereof” (Parker Hughes Institute, priority 1999, dated 2006).

Experiments:
Type in all cases: cell-based
[1] = test system: U373 human brain tumor cells; experiment: MTT cytotoxicity assay, U373; conditions: 24–36 hours
Protocol: (§1) The cytotoxicity assay of various compounds against human tumor cell lines was performed using the MTT (3-[4,5-dimethylthiazol-2-yl]-2,5-diphenyl tetrazolium bromide) assay (Boehringer Mannheim Corp., Indianapolis, Ind.). Briefly, exponentially growing tumor cells were seeded into a 96-well plate at a density of 2.5×10^4 cells/well and incubated for 36 hours at 37° C. prior to drug exposure. On the day of treatment, culture medium was carefully aspirated from the wells and replaced with fresh medium containing the quinazoline compounds at concentrations ranging from 0.1 to 250 μM. Triplicate wells were used for each treatment.
(§2) Human cell lines were obtained from American Type Culture Collection (Rockville, Md.) and maintained as a continuous cell line in Dulbecco's modified Eagles' medium supplemented with 10% fetal bovine serum and antibiotics. Cells used in this study include human leukemia cells (NALM-6 and MOLT-3), human breast cancer cells ([…]), human prostate cancer cells (PC3), and human brain tumor cells (U373).
(§3) The cells were incubated with the various compounds for 24–36 hours at 37° C. in a humidified 5% CO2 atmosphere. To each well, 10 μl of MTT (0.5 mg/ml final concentration) was added and the plates were incubated at 37° C. for 4 hours to allow MTT to form formazan crystals by reacting with metabolically active cells. The formazan crystals were solubilized overnight at 37° C. in a solution containing 10% SDS in 0.01 M HCl. The absorbance of each well was measured in a microplate reader (Labsystems) at 540 nm and a reference wavelength of 690 nm. To translate the OD 540 values into the number of live cells in each well, the OD 540 values were compared to those on standard OD 540—versus—cell number curves generated for each cell line. The percent survival was calculated using the formula:
(§4) [formula] The IC50 values were calculated by non-linear regression analysis. Detection of Apoptosis

[2] = test system: BT20 human breast cancer cells; experiment: MTT cytotoxicity assay, BT20; conditions: 24–36 hours
Protocol: as §1, §2, §3, §4

[3] = test system: MOLT-3 human leukemia cells; experiment: MTT cytotoxicity assay, MOLT-3; conditions: Homo sapiens, 24–36 hours
Protocol: as §1, §2, §3, §4

[4] = test system: NALM-6 human leukemia cells; experiment: MTT cytotoxicity assay, NALM-6; conditions: Homo sapiens, 24–36 hours
Protocol: as §1, §2, §3, §4

[5] = Homo sapiens, U373 MG, Table 4, OH substituted
[6] = Homo sapiens, BT-20, Table 2, chloro substituted
[7] = Homo sapiens, BT-20, Table 4, OH substituted
[8] = MOLT-3, Table 2, chloro substituted
[9] = MOLT-3, Table 4, OH substituted
[10] = NALM-6, Table 2, chloro substituted
[11] = NALM-6, Table 4, OH substituted
[12] = Homo sapiens, U373 MG, Table 3, iodide substituted
[13] = Homo sapiens, BT-20, Table 3, iodide substituted
[14] = MOLT-3, Table 3, iodide substituted
[15] = NALM-6, Table 3, iodide substituted
[16] = Homo sapiens, BT-20, Table 1, bromo substituted
[17] = MOLT-3, Table 1, bromo substituted
[18] = NALM-6, Table 1, bromo substituted

COc1cc2ncnc(Nc3cc(Cl)ccc3O)c2cc1OC [HI-P93, 4-(3′-Chlooro-6′-hydroxylphenyl)amino-6,7-dimethoxyquinazoline]
IC50 [1, 5]: > 250 µM | IC50 [2, 6]: > 250 µM | IC50 [2, 7]: > 250 µM | IC50 [3, 8]: > 250 µM | IC50 [3, 9]: > 250 µM | IC50 [4, 10]: > 250 µM | IC50 [4, 11]: > 250 µM

COc1cc2ncnc(Nc3ccc(I)cc3)c2cc1OC [HI-P300, 4-(4′-Iodophenyl)-amino-6,7-dimethoxyquinazoline]
IC50 [1, 12]: 116 µM | IC50 [2, 13]: 72.6 µM | IC50 [3, 14]: 59.1 µM | IC50 [4, 15]: 58 µM

COc1cc2ncnc(Nc3ccc(O)c(I)c3)c2cc1OC [HI-P299, 4-(4′-Hydroxy-3′-iodophenyl)-amino-6,7-dimethoxyquinazoline]
IC50 [1, 12]: > 250 µM | IC50 ([1]; Table 4, OH substituted): > 250 µM | IC50 [2, 13]: > 250 µM | IC50 [2, 7]: > 250 µM | IC50 [3, 14]: 60.1 µM | IC50 [3, 9]: 51.2 µM | IC50 [4, 15]: 15.4 µM | IC50 [4, 11]: 66.3 µM

COc1cc2ncnc(Nc3ccccc3I)c2cc1OC [HI-P270, 4-(2′-Iodophenyl)-amino-6,7-dimethoxyquinazoline]
IC50 [1, 12]: > 250 µM | IC50 [2, 13]: > 250 µM | IC50 [3, 14]: 78.9 µM | IC50 [4, 15]: > 250 µM

COc1cc2ncnc(Nc3ccc(Br)cc3CO)c2cc1OC [HI-P190, 4-(4′-Bromo-6′-hydroxymethylphenyl)-amino-6,7-dimethoxyquinazoline]
IC50 [1, 5]: > 250 µM | IC50 [2, 16]: > 250 µM | IC50 [2, 7]: > 250 µM | IC50 [3, 17]: > 250 µM | IC50 [3, 9]: > 250 µM | IC50 [4, 18]: > 250 µM | IC50 [4, 11]: > 250 µM

COc1cc2ncnc(Nc3ccccc3)c2cc1OC [HI-P258]
IC50 [2, 16]: > 250 µM | IC50 [3, 17]: > 250 µM | IC50 [4, 18]: > 250 µM

COc1cc2ncnc(Nc3ccc(Br)cc3C(=O)O)c2cc1OC [HI-P88, 4-(4′-Bromo-2′-caboxylphenyl)-amino-6,7-dimethoxyquinazoline]
IC50 [2, 16]: > 250 µM | IC50 [3, 17]: > 250 µM | IC50 [4, 18]: > 250 µM

COc1cc2ncnc(Nc3cc(Br)c(C)cc3Br)c2cc1OC [HI-P211, 4-(2′,5′-Dibromo-4′-methylphenyl)-amino-6,7-dimethoxyquinazoline]
IC50 [2, 16]: > 250 µM | IC50 [3, 17]: > 250 µM | IC50 [4, 18]: > 250 µM

COc1cc2ncnc(Nc3cccc(I)c3)c2cc1OC [HI-P271, 4-(3′-Iodophenyl)-amino-6,7-dimethoxyquinazoline]
IC50 [1, 12]: > 250 µM | IC50 [2, 13]: > 250 µM | IC50 [3, 14]: 9.6 µM | IC50 [4, 15]: 6.1 µM

COc1cc2ncnc(Nc3ccc(Br)cc3)c2cc1OC [HI-P260, 4-(4′-Bromophenyl)-amino-6,7-dimethoxyquinazoline]
IC50 [2, 16]: 82.1 µM | IC50 [3, 17]: 51.3 µM | IC50 [4, 18]: 32.4 µM

COc1cc2ncnc(Nc3cc(Cl)c(O)c(Cl)c3)c2cc1OC [HI-P189, 4-(4′-Hydroxyl-3′,5′-dichlorophenyl)amino-6,7-dimethoxyquinazoline]
IC50 [1, 5]: > 250 µM | IC50 [2, 6]: > 250 µM | IC50 [2, 7]: > 250 µM | IC50 [3, 8]: > 250 µM | IC50 [3, 9]: > 250 µM | IC50 [4, 10]: > 250 µM | IC50 [4, 11]: > 250 µM

COc1cc2ncnc(Nc3ccccc3Br)c2cc1OC [HI-P261, 4-(2′-Bromophenyl)-amino-6,7-dimethoxyquinazoline]
IC50 [2, 16]: 219 µM | IC50 [3, 17]: 148 µM | IC50 [4, 18]: 72.6 µM

COc1cc2ncnc(Nc3ccc(C)c(Br)c3Br)c2cc1OC [HI-P210, 4-(2′,3′-Dibromo-4′-methylphenyl)-amino-6,7-dimethoxyquinazoline]
IC50 [2, 16]: > 250 µM | IC50 [3, 17]: > 250 µM | IC50 [4, 18]: > 250 µM

COc1cc2ncnc(Nc3ccc(O)c(Br)c3)c2cc1OC [HI-P154, 4-(3′-Bromo-4′-hydroxylphenyl)-amino-6,7-dimethoxyquinazoline]
IC50 [2, 16]: > 250 µM | IC50 ([2]; Table 4, OH substituted): > 250 µM | IC50 [3, 17]: 9.1 µM | IC50 [4, 18]: 12.5 µM

COc1cc2ncnc(C(=O)c3cccc(Br)c3)c2cc1OC [HI-P164, 4-(3′-Bromobenzoyl)-6,7-dimethoxyquinazoline]
IC50 [2, 16]: 39.2 µM | IC50 [3, 17]: > 250 µM | IC50 [4, 18]: > 250 µM

COc1cc2ncnc(Nc3ccc(C)c(Br)c3)c2cc1OC [HI-P111, 4-(3′-Bromo-4′-methylphenyl)-amino-6,7-dimethoxyquinazoline]
IC50 [2, 16]: > 250 µM | IC50 [3, 17]: > 250 µM | IC50 [4, 18]: 201 µM
